Ends that are not written are not given here.
Experiments:
[1] = test system: CD8+ T cells of healthy donors; test: Priming of high-avidity CD8+ T cells with low density pMHC beads, tetramer staining and FACS sorting; assay type: cell-based, human; conditions: for establishment of specific high-avidity T-cell lines by FACS: healthy donors; for in vitro immunogenicity with low pMHC density aAPCs: low density beads (2 ng relevant pMHC)
Source text: Dependent on their ability to be activated by high- or low-density antigen, T cell lines can be divided into high- or low-avidity. As it has been shown before (Walter, S, et al., 2003, J. Immunol., 171, 4974-4978), human high-avidity CTLs can be raised successfully by using less peptide for activation compared to low-avidity CD8+ T cells.
To determine the ability of peptides to generate high-avidity CTL lines, isolated human CD8+ cells were primed and expanded by repeated in vitro stimulations with beads coated with low-density pMHC (peptide-MHC-complex) and anti-CD28 antibody in the presence of IL-12 and IL-2. After three stimulations, a fraction of in vitro primed T cells were pMHC-tetramer stained and detected by cytometric analysis. Tetramer-positive cells of each donor were pooled afterwards according to the antigen specificity, stained with pMHC-tetramer and human anti-CD8-FITC antibody and finally subjected to FACS sorting on a FACSAria. Sorted cells were cultured and expanded in the presence of irradiated feeder cells, cytokines and mitogen. As a read-out for the generation of primed high avidity antigen specific cells, pMHC-tetramer staining was performed. In order to determine their functionality, IFNγ production was assayed by ELISPOT and killing of tumor cell lines was examined using a cytotoxicity assay based on live/dead staining after restimulation of the cells with the corresponding peptide and tumor cell lines.
In vitro stimulations using artificial antigen presenting cells (aAPC) loaded with peptide-MHC complex (pMHC) and anti-CD28 antibody were conducted as described above. The only difference to the method described above was the fact that stimulations were performed with beads loaded with 2 ng relevant plus 200 ng irrelevant library (pMHC) MHC (low density beads) instead of 200 ng relevant MHC (high density beads). Thus, predominantly high avidity T cells were generated for deeper validation of peptides. After three stimulations, a fraction of in vitro primed T cells was pMHC-tetramer stained and detected by cytometric analysis. […] Tetramer-positive cells of each donor were pooled afterwards according to the antigen specificity, stained with the corresponding pMHC-tetramer and human anti-CD8-FITC antibody clone SK1 and finally subjected to FACS sorting on a FACSAria (BD Biosciences, Germany). […] As a read-out for the generation of primed high avidity antigen specific cells, pMHC-tetramer staining was performed as above and analyzed on a four-color FACSCalibur (BD Biosciences, Germany).

[2] = test system: CD8+ T cells of healthy HLA-A*02+ donors; test: In vitro priming of CD8+ T cells with pMHC/anti-CD28 coated beads (high density), tetramer analysis; assay type: cell-based, human; conditions: for Immunogenicity detected: at least one well with ≥1% specific tetramer+ among CD8+ T-cells and ≥10× median of negative controls; for Positive donors/donors tested / Positive donors/donors tested (%) / Positive wells/wells tested / Positive wells/wells tested (%): high density beads
Procedure: To perform in vitro stimulations by artificial antigen presenting cells (aAPC) loaded with peptide-MHC complex (pMHC) and anti-CD28 antibody, first PBMCs (peripheral blood mononuclear cells) were isolated from fresh HLA-A*02+ buffy coats by using standard density gradient separation medium (PAA, Cölbe, Germany). Buffy coats were either obtained from the Blood Bank Tübingen or from the Katharinenhospital Stuttgart. Isolated PBMCs were incubated overnight in T-cell medium (TCM) for human in vitro priming consisting of RPMI-Glutamax (Invitrogen, Karlsruhe, Germany) supplemented with 10% heat inactivated human AB serum (PAA, Cölbe, Germany), 100 U/ml Penicillin/100 μg/ml Streptomycin (Cambrex, Verviers, Belgium), 1 mM sodium pyruvate (CC Pro, Neustadt, Germany) and 20 μg/ml Gentamycin (Cambrex). CD8+ lymphocytes were isolated using the CD8+ MACS positive selection kit (Miltenyi, Bergisch Gladbach, Germany) according to the manufacturer's instructions. Obtained CD8+ T-cells were incubated until use in TCM supplemented with 2.5 ng/ml IL-7 (PromoCell, Heidelberg, Germany) and 10 U/ml IL-2 (Chiron, Munich, Gemany). Generation of pMHC/anti-CD28 coated beads, T-cell stimulations and readout was performed as described before (Walter, S, et al., 2003, J. Immunol., 171, 4974-4978) with minor modifications. Briefly, biotinylated recombinant HLA-A*0201 molecules lacking the transmembrane domain and being biotinylated at the carboxy terminus of the heavy chain were produced following a method described by (Altman, J D, et al., 1996, Science, 274, 94-96). The purified costimulatory mouse IgG2a anti human CD28 Ab 9.3 (Jung, G, Ledbetter, J A, and Muller-Eberhard, H J; 1987, Induction of cytotoxicity in resting human T lymphocytes bound to tumor cells by antibody heteroconjugates, Proc Natl Acad Sci USA, 84, 4611-4615) was chemically biotinylated using Sulfo-N-hydroxysuccinimidobiotin as recommended by the manufacturer (Perbio, Bonn, Germany).
800,000 beads/200 μl were coated in 96-well plates in the presence of 600 ng biotin anti-CD28 plus 200 ng relevant biotin-pMHC (high density beads) or 2 ng relevant plus 200 ng irrelevant (pMHC library) MHC (low density beads). Stimulations were initiated in 96-well plates by conincubating 1×10^6 CD8+ T cells with 2×10^5 washed coated beads in 200 μl TCM supplemented with 5 ng/ml IL-12 (PromoCell) for 3-4 days at 37° C. Half of the medium was then exchanged by fresh TCM supplemented with 80 U/ml IL-2 and incubation was continued for 3-4 days at 37° C. This stimulation cycle was performed for a total of three times. Finally, tetrameric analyses were performed with fluorescent MHC tetramers (produced as described by (Altman, J D, et al., 1996, Science, 274, 94-96)) plus antibody CD8-FITC clone SK1 (BD, Heidelberg, Germany) on a four-color FACSCalibur (BD). Peptide specific cells were calculated as percentage of total CD8+ T cells. Evaluation of tetrameric analysis was performed using the software FCS Express (De Novo Software). In vitro priming of specific tetramer+CD8+ lymphocytes was detected by appropriate gating and by comparison to negative control stimulations.
Peptides of the present invention were tested together with peptides of known in vivo immunogenicity for comparison. The CEA-005 peptide that was optimised for in vitro T-cell induction (Fong, L, et al., 2001, J. Immunol., 166, 4254-4259) served as control.
Results of in vitro immunogenicity experiments conducted by immatics are summarised here. Results shown have been obtained by stimulation of CD8+ cells with high density beads. As different human serum lots may highly affect the immunogenicity results, only assays in which one and the same serum lot was used, were evaluated together.

Row | Sequence | establishment of specific high-avidity T-cell lines by FACS [1] | in vitro immunogenicity with low pMHC density aAPCs [1] | Immunogenicity detected [2] | Positive donors/donors tested [2] | Positive donors/donors tested (%) [2] | Positive wells/wells tested [2] | Positive wells/wells tested (%) [2]
1 | ALFVRLLALA [TGFBI-001] | specific T-cell lines could be established by FACS | immunogenic in vitro | yes | 3/4 | (75%) | 4/22 | (18%)
2 | ILAPVILYI [NOX-001] | specific T-cell lines could be established by FACS | immunogenic in vitro | yes | 3/5 | (60%) | 9/60 | (15%)

Source: patent US9950048B2, “Immunogenic epitopes for immunotherapy” (immatics biotechnologies GmbH, priority 2007, dated 2018)
